One block for each compound: values may come before it. Residues, ends and D or L forms follow the SMILES beside them. No end group written: not given here.
Experiments:
Type in all cases: binding
[1] = molecular target: T1, VCAM1 (Homo sapiens, UniProt P19320); experiment: Recombinant phage ELISA specificity to VCAM1; details: recombinant phage ELISA against several proteins
T1 construct: made in house; host or cells: E. coli AD494 (pET32a)
T1 sequence (P19320 25-739): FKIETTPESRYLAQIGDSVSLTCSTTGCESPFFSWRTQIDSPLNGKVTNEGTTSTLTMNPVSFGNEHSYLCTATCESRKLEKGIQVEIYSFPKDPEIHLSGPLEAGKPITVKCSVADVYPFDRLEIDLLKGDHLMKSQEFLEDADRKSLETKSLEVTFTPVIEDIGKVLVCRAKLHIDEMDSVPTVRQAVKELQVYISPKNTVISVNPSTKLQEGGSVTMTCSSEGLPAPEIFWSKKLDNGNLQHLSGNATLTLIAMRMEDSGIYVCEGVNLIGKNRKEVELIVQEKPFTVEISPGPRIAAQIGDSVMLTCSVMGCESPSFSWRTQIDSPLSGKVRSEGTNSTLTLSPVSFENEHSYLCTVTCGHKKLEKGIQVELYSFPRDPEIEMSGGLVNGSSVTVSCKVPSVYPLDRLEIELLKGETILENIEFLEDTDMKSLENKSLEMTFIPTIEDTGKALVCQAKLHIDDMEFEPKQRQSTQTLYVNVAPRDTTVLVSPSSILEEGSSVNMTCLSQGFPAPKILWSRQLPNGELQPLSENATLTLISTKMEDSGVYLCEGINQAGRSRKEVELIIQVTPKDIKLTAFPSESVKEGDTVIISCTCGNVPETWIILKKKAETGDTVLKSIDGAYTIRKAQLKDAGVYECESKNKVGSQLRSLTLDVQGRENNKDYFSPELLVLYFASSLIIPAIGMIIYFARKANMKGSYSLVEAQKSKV
Method: (§1) Specificity of recombinant phages to each protein was carried out using ELISA. Each protein (5 μg/ml) was seeded into wells (50 μl per well) in a 96-well ELISA plate and next day, all wells were washed with 0.1% PBST (Tween-20) three times, and blocked at room temperature for 2 hrs using 2% skim milk. Then, the solution was completely removed and the plate was washed with 0.1% PBST three times. Recombinant phages containing the peptide of the present invention were thoroughly mixed with 2% BSA. Each mixture (100 μl) was divided into wells coated with 10 proteins and kept to stand at 27° C. for 2 hrs. After washing with 0.1% PBST 5 times, HRP-conjugated anti-M13 antibodies (1:1,000 dilution; GE Healthcare) were added to each well and incubated at 27° C. for 1 hr. After washing with 0.1% PBST 5 times, 100 μl TMB was divided into each well to induce colorimetric reaction, followed by stopping the reaction adding 100 μl of 1 M HCl. The absorbance was measured at 450 nm.

[2] = molecular target: T2, STAT3 (Homo sapiens, UniProt P40763); experiment: Phage ELISA to STAT3 (clone screening and specificity); details: recombinant phage ELISA
T2 construct: endogenous in cells; host or cells: DU145
Method: XL1-BLUE cells were transformed with phages recovered from the 4th biopanning step having the highest ratio of output phage to input phage, and spread in plate to produce 100-200 of plaques. Using a sterile tip, 60 plaques were inoculated in 2 ml LB-ampicillin (50 μg/ml) media and cultured at 37° C. for 5 hr with vigorous shaking. The transformed cells were infected with Ex helper phages (5×10^9 pfu/ml; OD=0.8-1.0) and cultured at 37° C. for 1 hr with shaking at 200 rpm. After removing the supernatant by centrifuging at 1,000×g for 10 min, the precipitated cells were resuspended in 1 ml LB liquid media supplemented with 50 μg/ml ampicillin and 25 μg/ml kanamycin, and cultured at 30° C. overnight with shaking at 200 rpm. The supernatant was collected by centrifuging at 10,000×g for 20 min at 4° C. and mixed with 2% skim milk, which is used in detection of phage peptides.
STAT3 (10 μg/ml), BSA (10 μg/ml) and streptavidin (10 μg/ml) each was added to 30 wells (50 μl per well) in a 96-well ELISA plate and then kept to stand at 4° C. overnight. Next day, all wells were washed with 0.1% PBST three times, and blocked at room temperature for 2 hrs using 2% skim milk diluted with PBS. Then, the solution was removed and the plate was washed with 0.1% PBST three times. […] The absorbance was measured at 450 nm to select phages which had the absorbance above 20-fold higher than BSA. […]

[3] = molecular target: T3, HSA (Homo sapiens, UniProt P02768); experiment: Recombinant phage ELISA specificity to HSA; details: recombinant phage ELISA against several proteins
T3 construct: purchased Genetex Inc. (Irvine)
Method: as §1

[4] = molecular target: T4, fibronectin ED-B (Homo sapiens, UniProt P02751); experiment: Recombinant phage ELISA specificity to fibronectin ED-B; details: 450 nm, 10 proteins
T4 construct: After transformation of pET28b vector carrying fibronectin ED-B into BL21 cells; made in house; host or cells: E. coli BL21 (pET28b)
Method: as §1

[5] = molecular target: T5, VEGF (Homo sapiens, UniProt P15692); experiment: Recombinant phage ELISA specificity to VEGF; details: recombinant phage ELISA against several proteins
T5 construct: Trx (thioredoxin, pET32a) (N, cleaved yes); made in house; host or cells: E. coli AD494 (pET32a)
T5 sequence (P15692 27-147 isoform P15692-9 limits assumed): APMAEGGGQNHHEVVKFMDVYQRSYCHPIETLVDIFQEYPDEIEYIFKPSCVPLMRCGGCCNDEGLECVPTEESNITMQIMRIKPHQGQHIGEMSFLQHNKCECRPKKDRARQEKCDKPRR
Method: as §1

[6] = molecular target: T6, MyD88 (Homo sapiens, UniProt Q99836); experiment: Recombinant phage ELISA specificity to MyD88; details: recombinant phage ELISA against several proteins
T6 construct: purchased Santa Cruz Biotechnology sc-4540 WB
Method: as §1
The MyD88-specific bipodal-peptide binders were analyzed to have target specificity to MyD88 by the ELISA (FIG. 6f).

[7] = molecular target: T7, nAchR (Nicotinic acetylcholine receptor) (Mus musculus, UniProt P04756); experiment: SPR (Biacore) affinity to nAchR peptide fragment
T7 construct: Biotin-[…]; (32 mer), a peptide fragment of nAchR; purchased Anigen Inc. (Korea, Kwangju), custom synthesis
Method: Affinity was measured using BIAcore X instrument (Biacore AB, Uppsala, Sweden). ED-B and nAchR were immobilized on streptavidin (SA) chip (Biacore) by injecting 2,000 RU biotinylated-EDB. VEGF was immobilized on CM5 chip (Biacore) using EDC/NHS. PBS (pH 7.4) was used as a running buffer.

[8] = molecular target: T8, nAchR (Mus musculus, UniProt P04756); experiment: Recombinant phage ELISA specificity to nAchR; details: recombinant phage ELISA against several proteins
T8 construct: Biotin-[…]; (32 mer), a peptide fragment of nAchR; purchased Anigen Inc. (Korea, Kwangju), custom synthesis
Method: as §1

T2 sequence (P40763 whole entry, species assumed): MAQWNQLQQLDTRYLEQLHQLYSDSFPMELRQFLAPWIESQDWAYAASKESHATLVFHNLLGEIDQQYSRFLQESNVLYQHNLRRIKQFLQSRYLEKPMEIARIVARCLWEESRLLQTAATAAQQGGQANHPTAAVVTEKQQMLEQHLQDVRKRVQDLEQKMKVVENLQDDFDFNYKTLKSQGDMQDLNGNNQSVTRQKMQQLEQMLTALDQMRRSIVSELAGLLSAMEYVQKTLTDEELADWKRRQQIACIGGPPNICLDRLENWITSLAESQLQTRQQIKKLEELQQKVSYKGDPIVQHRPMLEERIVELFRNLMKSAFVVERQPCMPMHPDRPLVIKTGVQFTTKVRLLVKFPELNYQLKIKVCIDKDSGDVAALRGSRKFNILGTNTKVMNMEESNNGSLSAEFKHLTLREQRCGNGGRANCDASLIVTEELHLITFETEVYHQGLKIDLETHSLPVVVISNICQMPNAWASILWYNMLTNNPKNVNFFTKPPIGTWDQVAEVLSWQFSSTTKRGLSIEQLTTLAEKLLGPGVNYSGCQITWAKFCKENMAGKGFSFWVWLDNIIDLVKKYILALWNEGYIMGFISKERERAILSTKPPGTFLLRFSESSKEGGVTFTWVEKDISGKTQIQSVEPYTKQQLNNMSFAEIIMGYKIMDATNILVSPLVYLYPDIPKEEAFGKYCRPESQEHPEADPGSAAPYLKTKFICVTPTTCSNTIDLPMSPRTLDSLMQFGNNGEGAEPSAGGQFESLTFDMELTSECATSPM
T8 sequence (P04756 193-224 limits assumed): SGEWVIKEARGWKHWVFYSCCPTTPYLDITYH
T7 sequence (P04756 193-224 limits assumed): as above
T3 sequence (P02768 25-609): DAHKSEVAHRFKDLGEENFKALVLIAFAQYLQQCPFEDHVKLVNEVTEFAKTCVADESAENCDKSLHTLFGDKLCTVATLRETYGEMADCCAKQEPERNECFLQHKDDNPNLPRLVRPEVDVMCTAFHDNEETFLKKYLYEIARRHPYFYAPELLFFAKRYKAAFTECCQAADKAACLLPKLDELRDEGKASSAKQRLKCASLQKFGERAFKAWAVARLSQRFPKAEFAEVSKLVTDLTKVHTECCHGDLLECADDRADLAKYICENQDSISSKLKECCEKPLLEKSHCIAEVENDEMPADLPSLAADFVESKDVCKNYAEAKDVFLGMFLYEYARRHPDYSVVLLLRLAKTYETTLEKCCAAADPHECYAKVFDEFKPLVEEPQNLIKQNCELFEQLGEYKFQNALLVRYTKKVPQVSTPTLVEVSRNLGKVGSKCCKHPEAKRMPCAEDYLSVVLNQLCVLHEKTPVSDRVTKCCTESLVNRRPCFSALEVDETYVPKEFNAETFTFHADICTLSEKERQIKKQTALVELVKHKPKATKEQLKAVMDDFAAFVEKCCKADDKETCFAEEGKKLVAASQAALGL
T4 sequence (P02751 1271-1359 limits assumed): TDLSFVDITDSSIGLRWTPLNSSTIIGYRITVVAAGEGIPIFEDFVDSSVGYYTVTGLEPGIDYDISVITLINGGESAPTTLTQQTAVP
T6 sequence (Q99836 whole entry): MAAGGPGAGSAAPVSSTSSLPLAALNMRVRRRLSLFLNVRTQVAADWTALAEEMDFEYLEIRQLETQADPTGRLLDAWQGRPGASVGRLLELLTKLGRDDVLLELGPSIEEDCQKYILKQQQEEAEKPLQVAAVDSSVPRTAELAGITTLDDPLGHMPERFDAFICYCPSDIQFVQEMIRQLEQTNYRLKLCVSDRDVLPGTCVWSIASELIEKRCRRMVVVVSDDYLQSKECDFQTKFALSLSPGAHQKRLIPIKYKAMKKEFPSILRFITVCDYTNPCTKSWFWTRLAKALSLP

Compound: CC[C@H](C)[C@H](NC(=O)[C@@H]1CCCN1C(=O)[C@H](CS)NC(=O)[C@@H](NC(=O)[C@H](CO)NC(=O)[C@@H]1CCCN1C(=O)CNC(=O)[C@H](CCCCN)NC(=O)[C@H](Cc1c[nH]c2ccccc12)NC(=O)[C@@H](NC(=O)[C@H](Cc1c[nH]c2ccccc12)NC(=O)[C@H](CCCCN)NC(=O)CNC(=O)[C@H](CC(N)=O)NC(=O)[C@H](CCC(=O)O)NC(=O)[C@H](Cc1c[nH]c2ccccc12)NC(=O)[C@@H](NC(=O)[C@H](Cc1c[nH]c2ccccc12)NC(=O)[C@H](CO)NC(=O)CNC(=O)[C@@H](NC(=O)[C@H](CS)NC(=O)[C@H](CC(=O)O)NC(=O)[C@H](CCCNC(=N)N)NC(=O)[C@H](C)NC(=O)[C@@H](N)CCC(N)=O)[C@@H](C)O)[C@@H](C)O)[C@@H](C)O)[C@@H](C)CC)C(=O)O [Peptide 1 (Table 3c)] (H-QARDCTGSWTWENGKWTWKGPSICPI-OH; N-terminus and C-terminus assumed)
specificity for VCAM1 [1]: has specificity

Compound: QAYYIPGSWTWENGKWTWKGLWGPEF [Peptide 1 (STAT3), QAYYIP GSWTWENGKWTWKG LWGPEF]
specificity to STAT3 compared to other proteins [2]: specificity to STAT3

Compound: AASPYKGSWTWENGKWTWKGGWRMKM [Peptide 1 (Table 3e)]
specificity for HSA [3]: has specificity

Compound: HCSSAVGSWTWENGKWTWKGIIRLEQ [2 (Table 3a)]
absorbance for ED-B higher than that of other proteins [4]: above 30 fold

specificity to STAT3 compared to other proteins [2]: specificity to STAT3
Compound: HGFQWP GSWTWENGKWTWKG AYQFLK (GSWTWENGKWTWKGAYQFLK) [Peptide 2 (STAT3)]

Compound: HANFFQGSWTWENGKWTWKGWKYNQS [Peptide 1 (Table 3b)]
specificity for VEGF [5]: has specificity

specificity for MyD88 [6]: has specificity
Compound: HSHAFYGSWTWENGKWTWKGNPGWWT [Peptide 1 (Table 3f)]

Compound: EASFWLGSWTWENGKWTWKGKGTLNR [Peptide 1 (Table 3d)]
Kd [7]: 73 nM
specificity for nAchR [8]: has specificity

Source: patent US20120309934A1, “INTRACELLUAR TARGETING BIPODAL PEPTIDE BINDER” (priority 2009, published 2012)
